13 molecules from patent US8466145B2, “Dipeptidyl peptidase IV inhibitors” (Orchid Chemicals & Pharmaceuticals Limited, priority 2009, dated 2013) can be followed below.

As a reminder, the inhibition is the share of the control response that was lost under treatment. Broadly, the melting point is the temperature, or range, at which the solid turns liquid.

Series [1] deals with T1, DPP-IV (Homo sapiens, UniProt P27487).
T1 construct: from tissue; host or cells: human plasma (per the earlier reading of the assay)
T1 sequence (P27487 39-766 limits assumed): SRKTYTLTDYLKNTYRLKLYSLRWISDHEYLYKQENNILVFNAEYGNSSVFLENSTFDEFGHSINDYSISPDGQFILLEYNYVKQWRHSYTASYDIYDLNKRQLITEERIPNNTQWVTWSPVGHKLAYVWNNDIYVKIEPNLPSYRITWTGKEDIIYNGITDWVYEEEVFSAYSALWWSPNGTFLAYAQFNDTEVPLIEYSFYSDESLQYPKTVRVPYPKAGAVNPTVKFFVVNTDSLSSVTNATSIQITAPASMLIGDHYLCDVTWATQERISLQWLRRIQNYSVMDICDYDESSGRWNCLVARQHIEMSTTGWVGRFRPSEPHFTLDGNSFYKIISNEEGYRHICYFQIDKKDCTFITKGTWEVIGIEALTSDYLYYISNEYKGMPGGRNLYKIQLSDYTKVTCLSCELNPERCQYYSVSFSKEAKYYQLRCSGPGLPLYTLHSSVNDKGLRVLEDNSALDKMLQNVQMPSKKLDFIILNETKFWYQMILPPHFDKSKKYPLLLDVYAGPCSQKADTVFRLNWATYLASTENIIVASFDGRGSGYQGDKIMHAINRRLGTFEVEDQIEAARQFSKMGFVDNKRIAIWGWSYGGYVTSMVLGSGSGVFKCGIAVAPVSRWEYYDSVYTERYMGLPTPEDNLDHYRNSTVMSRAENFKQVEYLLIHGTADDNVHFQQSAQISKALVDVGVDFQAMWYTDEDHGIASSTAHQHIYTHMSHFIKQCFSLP
The experiment in a line: DPP-IV inhibition, compounds screened by using human plasma. Format: biochemical. Conditions: screened by using human plasma (starred examples); for inhibition at 0.3 µM: 300 nM compound concentration.

The target in series [2] is T2, human recombinant Dipeptidyl peptidase 8 enzyme (hrDPP 8) (Homo sapiens, UniProt Q6V1X1).
T2 construct: purchased R&D systems
T2 sequence (Q6V1X1 whole entry): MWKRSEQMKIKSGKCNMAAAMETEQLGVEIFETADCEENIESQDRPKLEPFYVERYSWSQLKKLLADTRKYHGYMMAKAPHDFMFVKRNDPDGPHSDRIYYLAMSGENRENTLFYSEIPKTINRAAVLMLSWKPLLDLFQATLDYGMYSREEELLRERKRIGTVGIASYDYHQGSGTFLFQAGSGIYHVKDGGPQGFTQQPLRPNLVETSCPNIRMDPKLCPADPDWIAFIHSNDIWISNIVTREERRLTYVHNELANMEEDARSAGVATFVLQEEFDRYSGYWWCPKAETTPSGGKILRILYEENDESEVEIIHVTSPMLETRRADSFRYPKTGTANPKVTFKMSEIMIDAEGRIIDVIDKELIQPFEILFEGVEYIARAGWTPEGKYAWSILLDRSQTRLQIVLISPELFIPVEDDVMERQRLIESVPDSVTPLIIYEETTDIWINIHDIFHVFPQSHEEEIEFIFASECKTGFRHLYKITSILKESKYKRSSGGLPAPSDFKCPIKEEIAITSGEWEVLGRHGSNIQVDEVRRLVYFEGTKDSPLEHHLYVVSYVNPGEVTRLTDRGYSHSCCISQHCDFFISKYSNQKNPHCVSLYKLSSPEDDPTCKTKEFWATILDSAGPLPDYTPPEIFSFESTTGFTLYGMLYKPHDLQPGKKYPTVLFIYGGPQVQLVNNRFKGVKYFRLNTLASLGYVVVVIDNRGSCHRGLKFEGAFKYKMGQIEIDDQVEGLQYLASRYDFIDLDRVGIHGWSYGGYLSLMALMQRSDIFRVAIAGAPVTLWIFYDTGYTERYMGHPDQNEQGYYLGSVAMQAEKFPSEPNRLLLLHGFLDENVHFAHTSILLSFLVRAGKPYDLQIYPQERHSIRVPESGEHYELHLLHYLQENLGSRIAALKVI
Put plainly: DPP 8 assay, cleavage of H-Ala-Pro-AFC. Format: biochemical. Conditions: for Selectivity (Fold) DPP 8: selectivity for DPP-IV over DPP 8. The method, then:
DPP 8 activity was determined by the cleavage rate of 7-amino 4-fluoromethylcoumarin (AFC) from the substrate H-Ala-Pro-AFC. In brief, the assay was conducted by adding 30 ng of human recombinant Dipeptidyl peptidase 8 enzyme (hrDPP 8, available commercially from R&D systems) in 70 μL of the assay buffer (50 mM TRIS and 5 mM EDTA, pH 7.7) to a 96 well black flat bottom microtitre plate. Test compound was added as 10 μL additions to all wells except blank and total activity wells. After incubation of test substance with enzyme for 30 minutes at room temperature, 10 μL of 100 μM substrate H-Ala-Pro-AFC was added. After mixing, the plate was left for 30 minutes at room temperature. Then the reaction was terminated by addition of 10 μL of 25% Glacial Acetic Acid. Fluorescence was measured using Spectra Max Gemini XS (Molecular Devices, USA) at an excitation filter of 400 nm and emission filter of 505 nm.
Test compound dissolved in DMSO were diluted with assay buffer at different concentrations and tested in duplicates. Percentage inhibition was calculated with respect to total activity. IC50 value was calculated using Prism Software.

Series [3] has as its target T3, human recombinant Dipeptidyl peptidase 9 enzyme (hrDPP 9) (Homo sapiens, UniProt Q86TI2).
T3 construct: purchased R&D systems
The experiment in a line: DPP 9 assay, cleavage of H-Gly-Pro-AMC. The series is classed as biochemical. Conditions: for Selectivity (Fold) DPP 9: selectivity for DPP-IV over DPP 9. As for the experimental part:
DPP 9 activity was determined by the cleavage rate of 7-amino 4-methylcoumarin (AMC) from the substrate H-Gly-Pro-AMC. In brief, the assay was conducted by adding 10 ng of human recombinant Dipeptidyl peptidase 9 enzyme (hrDPP 9, available commercially from R&D systems) in 70 μL of the assay buffer (50 mM TRIS and 5 mM EDTA, pH 7.7) to a 96 well black flat bottom microtitre plate. Test compound was added as 10 μL additions to all wells except blank and total activity wells. After incubation of test substance with enzyme for 30 minutes at room temperature, 10 μL of 100 μM substrate H-Gly-Pro-AMC was added. After mixing, the plate was left for 30 minutes at room temperature. Then the reaction was terminated by addition of 10 μL of 25% Glacial Acetic Acid. Fluorescence was measured using Spectra Max Gemini XS (Molecular Devices, USA) at an excitation filter of 360 nm and emission filter of 460 nm.
Test compound dissolved in DMSO were diluted with assay buffer at different concentrations and tested in duplicates. Percentage inhibition was calculated with respect to total activity. IC50 value was calculated by using Prism Software.

Series [4] has as its target T4, human recombinant Dipeptidyl peptidase IV enzyme (hrDPP IV) (Homo sapiens, UniProt P27487).
T4 construct: purchased R&D systems
Put plainly: DPP IV assay, cleavage of H-Gly-Pro-AMC by human recombinant DPP-IV enzyme. Format: biochemical. The method in brief: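 Human recombinant DPP-IV (3 ng) preincubated 60 min at room temperature with compound in 25 mM HEPES, 140 mM NaCl, 1% BSA, pH 7.8, in duplicate. Reaction with H-Gly-Pro-AMC (10 μL of 100 μM) for 20 min, stopped with acetic acid; AMC fluorescence 360/460 nm, IC50 from percent inhibition.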

Series [5] deals with C57BL/6 mice. Put plainly: Oral glucose tolerance test. The series is classed as in vivo. Conditions: compound 10 mg/kg; for Antihyperglycemic activity, reduction in AUC (blood glucose), Time 0.50 hr: glucose 2 g/kg challenge 0.50 hr after compound administration; for Antihyperglycemic activity, reduction in AUC (blood glucose), Time 6.00 hr: glucose 2 g/kg challenge 6.00 hr after compound administration, NA = No activity. As for the experimental part:
Effect of compound on glucose tolerance was examined in 7 week old C57BL/6 mice. Animals were kept for 18 h fasting and were challenged with glucose (2 g/kg) 30 min after compound (10 mg/kg) administration. Blood samples for glucose measurement were obtained by tail bleed pre dose and at serial time points after the glucose load (30, 60 and 120 minutes). Blood glucose estimation was done by using ContourTS active strips on glucometer (Bayer). To find the time response on glucose excursion, animals were challenged with glucose at different time point after compound administration (0.5, 2, 4, 6, 8, 12 or 24 hours) at blood glucose was measured at pre (0 minute) and post (30, 60 and 120 minutes) glucose load.
Results of blood glucose were expressed as area under curve (AUC) was calculated using Prism software.

T3 sequence (Q86TI2 whole entry): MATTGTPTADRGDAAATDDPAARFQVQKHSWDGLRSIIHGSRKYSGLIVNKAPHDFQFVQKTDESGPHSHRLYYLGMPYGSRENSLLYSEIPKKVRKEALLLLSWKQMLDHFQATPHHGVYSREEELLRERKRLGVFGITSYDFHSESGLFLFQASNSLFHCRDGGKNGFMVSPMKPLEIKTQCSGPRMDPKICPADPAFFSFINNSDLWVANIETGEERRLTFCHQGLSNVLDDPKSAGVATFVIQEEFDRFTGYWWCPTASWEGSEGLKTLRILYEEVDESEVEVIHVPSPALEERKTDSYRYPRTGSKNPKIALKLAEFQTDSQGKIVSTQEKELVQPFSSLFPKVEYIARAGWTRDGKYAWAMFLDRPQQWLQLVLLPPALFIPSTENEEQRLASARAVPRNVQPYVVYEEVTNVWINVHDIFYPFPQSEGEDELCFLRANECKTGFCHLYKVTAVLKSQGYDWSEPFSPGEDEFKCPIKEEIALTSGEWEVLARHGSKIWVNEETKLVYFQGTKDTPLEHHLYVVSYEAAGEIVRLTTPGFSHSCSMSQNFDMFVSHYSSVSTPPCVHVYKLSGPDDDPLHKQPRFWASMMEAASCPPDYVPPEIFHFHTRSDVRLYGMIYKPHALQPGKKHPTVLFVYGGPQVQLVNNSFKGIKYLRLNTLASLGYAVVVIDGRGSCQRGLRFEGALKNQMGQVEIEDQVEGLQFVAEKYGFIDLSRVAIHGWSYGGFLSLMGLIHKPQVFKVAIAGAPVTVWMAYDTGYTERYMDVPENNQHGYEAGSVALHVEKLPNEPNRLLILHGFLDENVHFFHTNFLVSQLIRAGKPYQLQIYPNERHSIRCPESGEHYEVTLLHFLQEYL
T4 sequence (P27487 whole entry): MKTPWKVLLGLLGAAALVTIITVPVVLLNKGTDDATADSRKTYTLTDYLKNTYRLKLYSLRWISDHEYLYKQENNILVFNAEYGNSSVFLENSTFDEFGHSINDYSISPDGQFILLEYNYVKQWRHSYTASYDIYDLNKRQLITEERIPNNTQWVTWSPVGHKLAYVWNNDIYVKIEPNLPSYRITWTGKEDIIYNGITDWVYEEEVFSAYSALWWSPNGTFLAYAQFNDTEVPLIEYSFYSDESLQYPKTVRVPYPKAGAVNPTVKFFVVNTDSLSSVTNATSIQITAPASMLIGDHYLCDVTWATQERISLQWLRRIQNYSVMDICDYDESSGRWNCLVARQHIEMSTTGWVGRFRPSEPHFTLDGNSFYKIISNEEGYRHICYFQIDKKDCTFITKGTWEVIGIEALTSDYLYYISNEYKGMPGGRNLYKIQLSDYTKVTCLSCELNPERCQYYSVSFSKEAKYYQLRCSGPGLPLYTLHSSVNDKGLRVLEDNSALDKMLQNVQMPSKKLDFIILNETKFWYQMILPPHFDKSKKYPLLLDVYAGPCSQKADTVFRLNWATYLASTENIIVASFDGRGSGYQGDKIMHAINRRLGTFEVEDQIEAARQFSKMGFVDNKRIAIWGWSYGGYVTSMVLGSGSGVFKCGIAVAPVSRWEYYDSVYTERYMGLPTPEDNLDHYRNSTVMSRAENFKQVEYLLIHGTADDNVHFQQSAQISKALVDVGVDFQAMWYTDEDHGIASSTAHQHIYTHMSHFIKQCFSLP

In series [1], `CC1(C)[C@@H](Cn2cncn2)CC[C@@]1(C)NCC(=O)N1C[C@H](F)C[C@H]1C#N` [Example 2, (2S,4R)-1-(2-((1R,3S)-3-((1H-1,2,4-Triazol-1-yl)methyl)-1,2,2-trimethylcyclopentylamino)acetyl)-4-fluoropyrrolidine-2-carbonitrilemethane sulfonate] came in with an inhibition at 0.3 µM of 10.5%.
`CC1(C)[C@H](CN2CCOCC2)CC[C@]1(C)NCC(=O)N1C[C@@H](F)C[C@H]1C#N` [Example 34, (2S,4S)-4-Fluoro-1-(2-((1S,3R)-1,2,2-trimethyl-3-(morpholinomethyl)cyclopentylamino)acetyl)pyrrolidine-2-carbonitrile] returned a melting point of 163 to 166 °C. Also, in series [2], the “Selectivity (Fold) DPP 8” value is above 10000 Fold. For the same molecule, in series [3], the “Selectivity (Fold) DPP 9” value is recorded as above 1500 Fold. Also, the IC50 in series [4] was determined as 0.00894 µM. Moreover, in series [5], the “Antihyperglycemic activity, reduction in AUC (blood glucose), Time 0.50 hr” value is 54.32%.
With `CC1(C)[C@H](Cn2cncn2)CC[C@]1(C)NCC(=O)N1C[C@@H](F)C[C@H]1C#N` [Example 3, (2S,4S)-1-(2-((1S,3R)-3-((1H-1,2,4-Triazol-1-yl)methyl)-1,2,2-trimethylcyclopentylamino)acetyl)-4-fluoropyrrolidine-2-carbonitrile], the melting point fell in the range of 132 to 135 °C. Moreover, in series [2], the “Selectivity (Fold) DPP 8” value is listed as above 27000 Fold. Also, the “Selectivity (Fold) DPP 9” value in series [3] was above 5000 Fold. Moreover, in series [4], the IC50 was found to be 0.011 ± 0.00016 µM. Moreover, the “Antihyperglycemic activity, reduction in AUC (blood glucose), Time 0.50 hr” value in series [5] is reported as 53.89%.
On to `CC1(C)[C@@H](NCC(=O)N2CCC[C@H]2C#N)CC[C@@]1(C)c1nc(-c2ccc(F)cc2)no1` [Example 66, (S)-1-(2-((1S,3R)-3-(3-(4-Fluorophenyl)-1,2,4-oxadiazol-5-yl)-2,2,3-trimethylcyclopentylamino)acetyl)pyrrolidine-2-carbonitrile methanesulfonate], for which the inhibition at 0.3 µM in series [1] was determined as 23.2%.
Take `CC1(C)[C@@H](NCC(=O)N2C[C@@H](F)C[C@H]2C#N)CC[C@@]1(C)c1nc(-c2ccc(F)cc2)no1` [Example 65, (2S,4S)-4-Fluoro-1-(2-((1S,3R)-3-(3-(4-fluorophenyl)-1,2,4-oxadiazol-5-yl)-2,2,3-trimethylcyclopentylamino)acetyl)pyrrolidine-2-carbonitrile]: in series [1], the IC50 amounted to 0.238 µM.
In turn, `CC1(C)[C@H](CN2CCCS2(=O)=O)CC[C@]1(C)NCC(=O)N1C[C@@H](F)C[C@H]1C#N` [Example 29, (2S,4S)-1-(2-((1S,3R)-3-[(1,1-Dioxidoisothiazolidin-2-yl)methyl]-1,2,2-trimethyleyclopentylamino)acetyl)-4-fluoropyrrolidine-2-carbonitrile] displayed a melting point of 171 to 174 °C. Further, in series [2], the “Selectivity (Fold) DPP 8” value is on record as above 13000 Fold. Besides, the “Selectivity (Fold) DPP 9” value in series [3] is on record as above 1100 Fold. Besides, the IC50 in series [4] is 0.00761 µM. Besides, in series [5], the “Antihyperglycemic activity, reduction in AUC (blood glucose), Time 0.50 hr” value is listed as 42.52% and the “Antihyperglycemic activity, reduction in AUC (blood glucose), Time 6.00 hr” value is recorded as 20.21%.
In the case of `CC1(NCC(=O)N2C[C@@H](F)C[C@H]2C#N)CCC(CS(=O)(=O)c2ccc(S(C)(=O)=O)cc2)C1(C)C` (stereo in doubt) [Example 45, (2S,4S)-4-Fluoro-1-(2-((1S,3R)-1,2,2-trimethyl-3-((4-(methylsulfonyl)phenylsulfonyl)methyl)cyclopentylamino)acetyl)pyrrolidine-2-carbonitrile], the melting point was 211 to 216 °C. In addition, the IC50 in series [2] (human recombinant DPP 8, read-out: DPP 8 (cell printed in μM in the Selectivity column)) is above 300 µM. Further, the IC50 in series [3] (human recombinant DPP 9, read-out: DPP 9 (cell printed in μM in the Selectivity column)) was above 300 µM. Also, the IC50 in series [4] was determined as 0.059 µM.
Take `CC1(C)[C@H](Cn2cnnn2)CC[C@]1(C)NCC(=O)N1C[C@@H](F)C[C@H]1C#N` [Example 32, (2S,4S)-1-(2-((1S,3R)-3-((1H-Tetrazol-1-yl)methyl)-1,2,2-trimethylcyclopentylamino)acetyl)-4-fluoropyrrolidine-2-carbonitrile]: the melting point lay in the range of 151 to 154 °C. Also, the “Selectivity (Fold) DPP 8” value in series [2] is listed as above 9500 Fold. In series [3], the “Selectivity (Fold) DPP 9” value is reported as above 1900 Fold. In addition, the IC50 in series [4] was determined as 0.00601 µM. In addition, the “Antihyperglycemic activity, reduction in AUC (blood glucose), Time 0.50 hr” value in series [5] was 17.80%.
In the case of `CC1(C)[C@@H](c2nc(-c3ccc(F)cc3)no2)CC[C@@]1(C)NCC(=O)N1C[C@@H](F)C[C@H]1C#N` [Example 48, (2S,4S)-4-Fluoro-1-(2-((1R,3S)-3-(3-(4-fluorophenyl)-1,2,4-oxadiazol-5-yl)-1,2,2-trimethyleyclopentylamino)acetyl)pyrrolidine-2-carbonitrile], in series [1], the inhibition at 0.3 µM came to 4.46%.
`CC1(C)[C@@H](NCC(=O)N2C[C@@H](F)C[C@H]2C#N)CC[C@@]1(C)c1nc(-c2ccncc2)no1` [Example 70, (2S,4S)-4-Fluoro-1-(2-((1S,3R)-2,2,3-trimethyl-3-(3-(pyridin-4-yl)-1,2,4-oxadiazol-5-yl)cyclopentylamino)acetyl)pyrrolidine-2-carbonitrile] showed a melting point of 149 to 153 °C. For the same molecule, in series [2], the “Selectivity (Fold) DPP 8” value was above 550 Fold. Besides, the “Selectivity (Fold) DPP 9” value in series [3] was above 25 Fold. The IC50 in series [4] turned out to be 0.0267 µM.
The molecule `Cc1noc([C@]2(C)CC[C@H](NCC(=O)N3C[C@@H](F)C[C@H]3C#N)C2(C)C)n1` [Example 74, (2S,4S)-4-Fluoro-1-(2-((1S,3R)-2,2,3-trimethyl-3-(3-methyl-1,2,4-oxadiazol-5-yl)cyclopentylamino)acetyl)pyrrolidine-2-carbonitrile] came in with a melting point of 137 to 141 °C. In addition, the “Selectivity (Fold) DPP 8” value in series [2] was above 900 Fold. For the same molecule, in series [3], the “Selectivity (Fold) DPP 9” value is recorded as above 25 Fold. For the same molecule, the IC50 in series [4] amounted to 0.0547 µM.
The molecule `CC1(C)[C@H](Cc2noc(CO)n2)CC[C@]1(C)NCC(=O)N1C[C@@H](F)C[C@H]1C#N` [Example 60, (2S,4S)-4-Fluoro-1-(2-((1S,3S)-3-((5-(hydroxymethyl)-1,2,4-oxadiazol-3-yl)methyl)-1,2,2-trimethylcyclopentylamino)acetyl)pyrrolidine-2-carbonitrile] showed a melting point of 147 to 149 °C. Further, the “Selectivity (Fold) DPP 8” value in series [2] is above 19000 Fold. Besides, the “Selectivity (Fold) DPP 9” value in series [3] is on record as above 7000 Fold. In addition, in series [4], the IC50 is 0.00659 µM. For the same molecule, the inhibition at 0.3 µM in series [4] (300 nM compound concentration) is 94.7%. In addition, in series [5], the “Antihyperglycemic activity, reduction in AUC (blood glucose), Time 0.50 hr” value is given as 47.70% and the “Antihyperglycemic activity, reduction in AUC (blood glucose), Time 6.00 hr” value worked out at 51.55%. In series [5] (glucose 2 g/kg challenge 12.00 hr after compound administration), the “Antihyperglycemic activity, reduction in AUC (blood glucose), Time 12.00 hr” value was 29.62%.
In series [1], `CC1(C)[C@H](Cn2cncn2)CC[C@]1(C)NCC(=O)N1C[C@H](F)C[C@H]1C#N` [Example 5, (2S,4R)-1-(2-((1S,3R)-3-((1H-1,2,4-Triazol-1-yl)methyl)-1,2,2-trimethylcyclopentylamino)acetyl)-4-fluoropyrrolidine-2-carbonitrilemethanesulfonate] showed an inhibition at 0.3 µM of 4.1%.
